The data set is described as follows: Elution of paclitaxel from E3 Med Coat coated stents in phosphate buffered saline. It counts as physicochemical. To be noted: from E3 Med Coat stents (loading 50-60 μg), over a period of 14 days. How it is done: Solution E3-PC was coated on stainless steel coronary stents, and dried for 60 minutes at 120° C. This layer was applied twice. Solution E3 —Med Coat was coated over the precoat layers, and dried for 60 minutes at 120° C. Drug loading on the stents in the range of 50-60 μg was achieved by applying the Med Coat three times. The stent samples with three layers of E3—Med Coat were subjected to elution in room temperature phosphate buffered saline for times up to 336 hours, and produced the results set forth in TABLE I.

For `CC(=O)O[C@H]1C(=O)[C@@]2(C)[C@H]([C@H](OC(=O)c3ccccc3)[C@]3(O)C[C@H](OC(=O)[C@H](O)[C@@H](NC(=O)c4ccccc4)c4ccccc4)C(C)=C1C3(C)C)[C@]1(OC(C)=O)CO[C@@H]1C[C@@H]2O` [paclitaxel], the paclitaxel eluted out result is listed as “approximately 10%”.

The record behind these values is patent US8101200B2, “Targeted therapeutic agent release devices and methods of making and using the same” (Angiotech BioCoatings, Inc., priority 2000, dated 2012).
